Numbers after ± are expanded uncertainties.
Assay: Molar enthalpy of transition or fusion
Settings: Crystal; DSC

Molar enthalpy of transition or fusion: 10.5 ± 0.22 kcal/mol
Structure (SMILES): O.O.O.O.O.O.[Br-].[Br-].[Ca+2] [calcium bromide hexahydrate]

Reference: the NIST ThermoML archive (doi:10.1016/j.tca.2018.10.026)
